# Test results published in publication PMC5650142, “GPR40 partial agonists and AgoPAMs: Differentiating effects on glucose and hormonal secretions in the rodent” (PLoS ONE, 2017).
# Several values for one entry are separate records, joined by “and”; a condition that tells them apart may be missing. Equal values may be shown once. Read-outs that look alike come from different tables or passages of the source.
# Key:
# human GPR40 = human GPR40 (Homo sapiens, UniProt O14842); assay: GPR40 binding assay, AgoPAM tracer [3H]25 ([3H]AP9); set-up: expressed in transfected cells; host or cells: CHO / CHO-K1 cells, membrane preparation;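 for % Bound Normalized to 100: 100% bound is tracer binding in DMSO-only wells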;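 for %Bound: 100% bound is tracer binding in DMSO-only wells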
# human GPR40, sequence (O14842 whole entry): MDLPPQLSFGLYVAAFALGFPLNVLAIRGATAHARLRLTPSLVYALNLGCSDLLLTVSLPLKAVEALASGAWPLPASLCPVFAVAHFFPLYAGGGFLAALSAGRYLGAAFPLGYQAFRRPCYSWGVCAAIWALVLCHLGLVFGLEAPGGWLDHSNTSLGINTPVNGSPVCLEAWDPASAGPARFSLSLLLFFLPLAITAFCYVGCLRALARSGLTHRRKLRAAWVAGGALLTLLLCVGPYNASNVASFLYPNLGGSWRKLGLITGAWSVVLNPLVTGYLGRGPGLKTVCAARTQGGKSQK
# Protocol: Two small molecule tracers, the partial agonist [3H][…] and the AgoPAM [3H]25, are used to measure compound affinity at each site as described previously. Because of the allosteric coupling of the two sites and the nature of the assay, addition of a compound will either displace (binds to same site) or augment (binds to allosterically coupled site) radiotracer. Membranes expressing GPR40 were prepared from CHO cells stably expressing human GPR40. […] Sigma P8830) and were homogenized in 50 ml aliquots with a motor-driven glass Dounce homogenizer, 15 strokes at 1900 rpm on wet ice, repeating once. Homogenates were centrifuged at 2200 rpm for 10 min at 4°C. Supernatants were carefully removed and pooled. Homogenization and centrifugation were repeated until the debris pellet was translucent to maximize membrane recovery. Supernatants were then centrifuged at […] rpm for 20 min. at 4°C. […] Protein concentration was determined by Pierce BCA kit. […] The beads and membrane mixture is then vigorously mixed for 30 minutes at room temperature prior to addition to the assay. […] Next, 15 μl of the radioligand and 35 μl of the beads/membranes solution is added to each well. The assay plates are then sealed and incubated for 30 minutes at room temperature on an orbital shaker. The plates are allowed to settle for 16 hours and then counted on a TopCount scintillation counter (PE). […] Maximal % bound and IC50 are then determined for each test compound. 5 μg/well membrane together with 200 μg/well of PVT WGA SPA beads (GE #RPNG-0001) were suspended in a white 96 well plate with a final concentration of 50 μl/well in assay buffer (50 mM Tris, 10 mM MgCl2, and 2 mM EDTA). […] The plate is briefly mixed and incubated for 3-18 h at room temperature, before it is read on a MicroBeta plate counter (Perkin Elmer, MS, USA).
# GK rats = assay: GK rat acute efficacy (glucose, insulin, glucagon after single dose); assay type: in vivo; settings: 30 mpk
# Protocol: Ambient blood glucose was measured via tail snip with a glucometer (OneTouch Ultra, Lifescan Inc., Milpitas, CA). Body weights were then measured, and food was removed approximately 1 hr post lights on. Animals were sorted into treatment groups based on ambient glucose. At approximately 10 AM, glucose was measured and blood for insulin, glucagon, and drug exposure was collected. […] Each compound tested was dosed at its maximal effective dose determined through a series of dose titrations using this experimental paradigm (data not shown). Effects of treatment on glucose, insulin, and glucagon were measured at 1, 2, 4, and 24 hrs post dose. After the 4 hr blood collection, food was returned overnight and removed the next day at 1 hr post lights on.
# Blood for insulin, glucagon, GLP-1, GIP, and PYY measurements was collected into K2EDTA Microtainer tubes (BD, Franklin Lakes, NJ) pre-treated with DPP4 inhibitor (Millipore, Billerica, MA) and cOmplete™ Protease Inhibitor Cocktail Tablets (Roche Diagnostics, Indianapolis, IN). Tubes were centrifuged for 10 minutes at 5000 RPM, and plasma was aliquotted for analysis. Plasma insulin levels were measured via EIA (Mesoscale Discovery ELISA Kit, Gaithersburg MD). Rat plasma total GLP-1 was measured using Total GLP-1 (ver.2) Assay Kit (Cat#: K150JVC). The measurement of active GLP-1 was carried out in a similar manner as that described for total GLP-1 assay with the exception that MSD Active GLP-1 (ver. 2) assay kit (Cat# K150JWC) was used. Rat plasma glucagon was measured using an in-house glucagon assay developed as a MSD format sandwich immunoassay (Merck & Co., Inc., MRL, Kenilworth, NJ USA). The antibody specificity was cross validated via mass- spec using procedures described in Lee et al. Briefly, MSD Streptavidin Gold plates were coated with 2 μg/ml biotin mouse monoclonal antibody generated to glucagon. Test samples were added to the plates and a separate Sulfo- tagged monoclonal antibody was used to detect the captured glucagon protein (2 μg/ml). The ELISA was carried out in the standard reagents in the MSD format. The plate was read on the SECTOR Imager 6000 Reader. Metabolic hormones GIP (Gastric Inhibitory Polypeptide) and PYY (Peptide YY) were measured in rat plasma using the Rat Metabolic Magnetic Bead Panel (EMD Millipore, Billerica, MA). The assay was performed according to manufacturer protocol.
# [1] = radioligand L-005306257, dose 0.318285 nM
# [2] = radioligand L-005306257, dose 1.00578 nM
# [3] = radioligand L-005306257, dose 3.17827 nM
# [4] = radioligand L-005306257, dose 10.0433 nM
# [5] = radioligand L-005306257, dose 31.7369 nM
# [6] = radioligand L-005306257, dose 100.289 nM
# [7] = radioligand L-005306257, dose 316.912 nM
# [8] = radioligand L-005306257, dose 1001.44 nM
# [9] = radioligand L-005306257, dose 3164.56 nM
# [10] = radioligand L-005306257, dose 10000 nM
smiles,measurement,setting,value
COc1ccc(F)c(-c2ccc([C@@H]3CCc4ccc([C@H](C5CC5)[C@H](C)C(=O)O)cc4O3)cc2)c1 [AP1],"Binding Results, % in parentheses, [^3H]AP9","human GPR40; WT human GPR40, maximal % (not defined)",(101%)
same,IC50,"human GPR40; WT human GPR40, n = 2–13, read-out: Binding Results [IC50, nM], [^3H]AP9",2.7 ± 0.7 nM
same,binding of [^3H]25,"human GPR40; human GPR40 membranes, competition binding",displace
same,"%Act, HUMAN GPR40, Binding Data","human GPR40; individual determinations, AgoPAM tracer (per Table 2)",99% and 102%
same,IC50,"human GPR40; individual determinations, AgoPAM tracer (per Table 2), read-out: IC50 (nM), HUMAN GPR40, Binding Data",2.2 nM and 3.2 nM
same,% Bound Normalized to 100,human GPR40; [1],100.21%
same,%Bound,human GPR40; [1],94.32%
same,inhibition at 0.000318285 µM,human GPR40; [1],5.68%
same,% Bound Normalized to 100,human GPR40; [2],76.16%
same,%Bound,human GPR40; [2],70.27%
same,inhibition at 0.00100578 µM,human GPR40; [2],29.7%
same,% Bound Normalized to 100,human GPR40; [3],60.56%
same,%Bound,human GPR40; [3],54.67%
same,inhibition at 0.00317827 µM,human GPR40; [3],45.3%
same,% Bound Normalized to 100,human GPR40; [4],29.85%
same,%Bound,human GPR40; [4],23.96%
same,inhibition at 0.0100433 µM,human GPR40; [4],76%
same,% Bound Normalized to 100,human GPR40; [5],20.26%
same,%Bound,human GPR40; [5],14.37%
same,inhibition at 0.0317369 µM,human GPR40; [5],85.6%
same,% Bound Normalized to 100,human GPR40; [6],11.49%
same,%Bound,human GPR40; [6],5.60%
same,inhibition at 0.100289 µM,human GPR40; [6],94.4%
same,% Bound Normalized to 100,human GPR40; [7],7.10%
same,%Bound,human GPR40; [7],1.21%
same,inhibition at 0.316912 µM,human GPR40; [7],98.8%
same,% Bound Normalized to 100,human GPR40; [8],8.08%
same,%Bound,human GPR40; [8],2.18%
same,inhibition at 1.00144 µM,human GPR40; [8],97.8%
same,% Bound Normalized to 100,human GPR40; [9],6.45%
same,%Bound,human GPR40; [9],0.56%
same,inhibition at 3.16456 µM,human GPR40; [9],99.4%
same,% Bound Normalized to 100,human GPR40; [10],7.75%
same,%Bound,human GPR40; [10],1.86%
same,inhibition at 10 µM,human GPR40; [10],98.1%
same,Plasma Glucagon Over Time (Fig 2C),"GK rats; time 0, individual animals",55.7691 pg/mL and 68.321 pg/mL and 77.904 pg/mL and 111.395 pg/mL and 52.9088 pg/mL and 48.0782 pg/mL and 166.643 pg/mL and 75.2113 pg/mL
same,Plasma Insulin Over Time (Fig 2B),"GK rats; time 0, individual animals",1.368 ng/mL and 2.115 ng/mL and 2.541 ng/mL and 1.628 ng/mL and 3.5154 ng/mL and 1.38 ng/mL and 1.662 ng/mL and 2.024 ng/mL
same,Plasma Glucagon Over Time (Fig 2C),"GK rats; time 1, individual animals",68.4222 pg/mL and 203.855 pg/mL and 443.444 pg/mL and 510.501 pg/mL and 371.284 pg/mL and 243.688 pg/mL and 323.455 pg/mL and 532.086 pg/mL
same,Plasma Insulin Over Time (Fig 2B),"GK rats; time 1, individual animals",2.471 ng/mL and 8.448 ng/mL and 6.286 ng/mL and 2.7997 ng/mL and 8.046 ng/mL and 6.547 ng/mL and 6.926 ng/mL and 4.435 ng/mL
same,Plasma Glucagon Over Time (Fig 2C),"GK rats; time 2, individual animals",677.742 pg/mL and 147.407 pg/mL and 198.886 pg/mL and 95.5346 pg/mL and 199.272 pg/mL and 184.367 pg/mL and 336.315 pg/mL and 387.077 pg/mL
same,Plasma Insulin Over Time (Fig 2B),"GK rats; time 2, individual animals",2.6557 ng/mL and 2.936 ng/mL and 3.027 ng/mL and 0.7256 ng/mL and 3.203 ng/mL and 2.271 ng/mL and 3.072 ng/mL and 2.0183 ng/mL
same,Plasma Glucagon Over Time (Fig 2C),"GK rats; time 4, individual animals",426.615 pg/mL and 76.1995 pg/mL and 36.6178 pg/mL and 86.9884 pg/mL and 83.1703 pg/mL and 202.015 pg/mL and 219.163 pg/mL and 202.907 pg/mL
same,Plasma Insulin Over Time (Fig 2B),"GK rats; time 4, individual animals",2.117 ng/mL and 1.616 ng/mL and 1.477 ng/mL and 1.139 ng/mL and 1.988 ng/mL and 2.587 ng/mL and 2.052 ng/mL
same,Plasma Glucagon Over Time (Fig 2C),"GK rats; time 24, individual animals",168.326 pg/mL and 107.348 pg/mL and 18.8494 pg/mL and 200.464 pg/mL and 140.291 pg/mL and 122.096 pg/mL and 264.039 pg/mL and 261.868 pg/mL
same,Plasma Insulin Over Time (Fig 2B),"GK rats; time 24, individual animals",1.016 ng/mL and 0.9428 ng/mL and 0.1505 ng/mL and 1.222 ng/mL and 1.548 ng/mL and 1.3655 ng/mL and 1.314 ng/mL and 1.563 ng/mL
